biological target: T1, Human TRPC6 (Homo sapiens, UniProt Q9Y210); test: Evaluation of TRPC6 channel inhibitory activity (1), FLIPR Calcium 5 Assay Kit, OAG stimulation (Compound Nos. 1-1293); format: cell-based; conditions: Human TRPC6 stably-expressing cells, OAG 30 μM, FLIPR Calcium 5 Assay Kit; read-out: Inhibitory activity (pIC50 class) (converted)
T1 construct: expressed in transfected cells
T1 sequence (Q9Y210 1-931): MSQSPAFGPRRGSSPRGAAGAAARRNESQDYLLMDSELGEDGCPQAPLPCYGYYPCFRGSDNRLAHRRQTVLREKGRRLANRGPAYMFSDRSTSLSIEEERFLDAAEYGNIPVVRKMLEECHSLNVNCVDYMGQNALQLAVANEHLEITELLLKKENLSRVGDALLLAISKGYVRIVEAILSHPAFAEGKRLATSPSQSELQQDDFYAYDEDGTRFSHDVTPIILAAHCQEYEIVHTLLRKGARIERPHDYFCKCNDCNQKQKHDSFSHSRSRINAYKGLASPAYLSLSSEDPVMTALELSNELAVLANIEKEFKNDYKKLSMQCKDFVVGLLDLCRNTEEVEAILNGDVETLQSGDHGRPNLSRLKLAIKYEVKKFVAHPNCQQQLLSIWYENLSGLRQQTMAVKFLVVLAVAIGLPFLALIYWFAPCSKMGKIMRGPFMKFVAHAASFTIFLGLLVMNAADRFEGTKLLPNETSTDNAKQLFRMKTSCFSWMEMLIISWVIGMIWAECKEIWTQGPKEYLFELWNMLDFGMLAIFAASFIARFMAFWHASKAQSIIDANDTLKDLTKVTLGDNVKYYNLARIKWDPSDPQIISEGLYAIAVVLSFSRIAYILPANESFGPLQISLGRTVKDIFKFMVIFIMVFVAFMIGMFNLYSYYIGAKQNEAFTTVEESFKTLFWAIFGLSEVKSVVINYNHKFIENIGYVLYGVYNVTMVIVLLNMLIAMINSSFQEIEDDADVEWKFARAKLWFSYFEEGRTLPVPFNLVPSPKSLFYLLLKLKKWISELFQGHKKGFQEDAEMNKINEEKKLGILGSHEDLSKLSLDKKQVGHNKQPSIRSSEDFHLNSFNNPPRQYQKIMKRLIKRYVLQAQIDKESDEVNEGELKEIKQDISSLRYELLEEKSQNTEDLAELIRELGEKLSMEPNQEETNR
Procedure, shortened: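 The FLIPR signal is maximum fluorescence after 30 μM OAG minus minimum before compound, measured in a human TRPC6 stable line loaded with Calcium 5 dye. Compounds were preincubated 20 min. pIC50 came from four-parameter logistic fitting of inhibition rates and is given as symbol ranges.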

IC50	Compound
> 1000 nM	Cn1nc(-c2ccccc2)cc1Oc1cc(C#N)ccc1-c1ccc2c(CN)noc2c1 [compound 457, 4-[3-(aminomethyl)-1,2-benzoxazol-6-yl]-3-(2-methyl-5-phenylpyrazol-3-yl)oxybenzonitrile]
< 10 nM	COCCN(C)c1cc(Oc2cc(C#N)ccc2-c2ncc(CCN)cn2)cc(C)n1 [compound 458, 4-[5-(2-aminoethyl)pyrimidin-2-yl]-3-[2-[2-methoxyethyl(methyl)amino]-6-methylpyridin-4-yl]oxybenzonitrile]
< 10 nM	COCCN(C)c1cc(Oc2cc(C#N)ccc2-c2ccc(CCN)cn2)cc(C)n1 [compound 459, 4-[5-(2-aminoethyl)pyridin-2-yl]-3-[2-[2-methoxyethyl(methyl)amino]-6-methylpyridin-4-yl]oxybenzonitrile]
> 1000 nM	CCc1cc(Oc2cc(C#N)ccc2-n2cc(CC(N)C(=O)O)c3ccccc32)n(C)n1 (centres unmarked) [compound 460, 2-amino-3-[1-[4-cyano-2-(5-ethyl-2-methylpyrazol-3-yl)oxyphenyl]indol-3-yl]propanoic acid]
< 10 nM	Cc1cc(Oc2cc(C#N)ccc2-c2ncc(CCN)cn2)cc(NC(C)C)n1 [compound 461, 4-[5-(2-aminoethyl)pyrimidin-2-yl]-3-[2-methyl-6-(propan-2-ylamino)pyridin-4-yl]oxybenzonitrile]
> 1000 nM	Cc1cc(Oc2cc(C#N)ccc2-c2ncc(C3(N)CC3)cn2)cc(N2CCOCC2)n1 [compound 462, 4-[5-(1-aminocyclopropyl)pyrimidin-2-yl]-3-(2-methyl-6-morpholin-4-ylpyridin-4-yl)oxybenzonitrile]
> 1000 nM	Cn1nc(C2CC2)cc1Oc1cc(C#N)ccc1-c1ncc(C2(N)CC2)cn1 [compound 463, 4-[5-(1-aminocyclopropyl)pyrimidin-2-yl]-3-(5-cyclopropyl-2-methylpyrazol-3-yl)oxybenzonitrile]
> 1000 nM	Cc1cc(Oc2cc(C#N)ccc2-c2ccc(CCN)cn2)cc(N2CCN(C)C(=O)C2)n1 [compound 464, 4-[5-(2-aminoethyl)pyridin-2-yl]-3-[2-methyl-6-(4-methyl-3-oxopiperazin-1-yl)pyridin-4-yl]oxybenzonitrile]
> 1000 nM	Cc1cc(Oc2cc(C#N)ccc2-c2ncc(CCN)cn2)cc(N2CCN(C)C(=O)C2)n1 [compound 465, 4-[5-(2-aminoethyl)pyrimidin-2-yl]-3-[2-methyl-6-(4-methyl-3-oxopiperazin-1-yl)pyridin-4-yl]oxybenzonitrile]
> 1000 nM	Cc1ccc(-c2cc(Oc3cc(C#N)ccc3-c3ncc(CCN)cn3)cc(C)n2)nn1 [compound 466, 4-[5-(2-aminoethyl)pyrimidin-2-yl]-3-[2-methyl-6-(6-methylpyridazin-3-yl)pyridin-4-yl]oxybenzonitrile]
< 10 nM	Cc1nc(Oc2cc(C#N)ccc2-c2ncc(CN)cn2)cc(N2CCOCC2)n1 [compound 467, 4-[5-(aminomethyl)pyrimidin-2-yl]-3-(2-methyl-6-morpholin-4-ylpyrimidin-4-yl)oxybenzonitrile]
> 1000 nM	Cn1nc(C2CC2)cc1Oc1cc(C#N)ccc1-c1cc(N)nc2ccnn12 [compound 468, 4-(5-aminopyrazolo[1,5-a]pyrimidin-7-yl)-3-(5-cyclopropyl-2-methylpyrazol-3-yl)oxybenzonitrile]
< 10 nM	Cn1nc(-c2ccccc2)cc1Oc1cc(C#N)ccc1-c1ccc(C(N)CO)cn1 (centres unmarked) [compound 469, 4-[5-(1-amino-2-hydroxyethyl)pyridin-2-yl]-3-(2-methyl-5-phenylpyrazol-3-yl)oxybenzonitrile]
< 10 nM	Cc1cc(Oc2cc(C#N)ccc2-c2ncc(CCN)cn2)cc(N2CCOC[C@H]2C)n1 [compound 470, 4-[5-(2-aminoethyl)pyrimidin-2-yl]-3-[2-methyl-6-[(3R)-3-methylmorpholin-4-yl]pyridin-4-yl]oxybenzonitrile]
